Results: ChEMBL document CHEMBL3885881, “DrugMatrix”

Species on record: Rattus norvegicus
Assay: DrugMatrix - Regimen: Daily Repeat
Assay type: toxicity, organism-based, Sprague-Dawley
Design: regimen Daily Repeat, gender Male, age 6-8 weeks
Conditions: in vivo, po, route oral GAVAGE, […]; for ABSOLUTE BASOPHIL / ABSOLUTE EOSINOPHIL / ABSOLUTE LYMPHOCYTE / ABSOLUTE MONOCYTE / ABSOLUTE SEGMENTED NEUTROPHIL / BASOPHIL / EOSINOPHIL / ERYTHROCYTE COUNT / HEMATOCRIT / HEMOGLOBIN / LEUKOCYTE COUNT / LYMPHOCYTE / MEAN CORPUSCULAR HEMOGLOBIN / MEAN CORPUSCULAR HEMOGLOBIN CONCENTRATION / MEAN CORPUSCULAR VOLUME / MONOCYTE / NEUTROPHIL / NUCLEATED RED BLOOD CELLS / PLATELET COUNT: tissue Blood; for ALANINE AMINOTRANSFERASE / ALBUMIN / ALKALINE PHOSPHATASE / ASPARTATE AMINOTRANSFERASE / BLOOD UREA NITROGEN / CARBON DIOXIDE / CHLORIDE / CHOLESTEROL / CREATINE PHOSPHOKINASE / CREATININE / GLUCOSE / LACTATE DEHYDROGENASE / LIPASE / PHOSPHORUS / POTASSIUM / SODIUM / TOTAL BILIRUBIN / TOTAL PROTEIN / URIC ACID: tissue Plasma
[1] = 10 mg/kg, 72 h, dose level Low, time 3 day
[2] = 10 mg/kg, 120 h, dose level Low, time 5 day
[3] = 50 mg/kg, 72 h, dose level High, time 3 day
[4] = 50 mg/kg, 120 h, dose level High, time 5 day

## CC(C)CC(N(C)C)C1(c2ccc(Cl)cc2)CCC1 (configuration not stated) [SIBUTRAMINE]
[1]
  ABSOLUTE BASOPHIL: 0 CELLS/uL
  ABSOLUTE EOSINOPHIL: 0 CELLS/uL
  ABSOLUTE LYMPHOCYTE: 16618.67 CELLS/uL
  ABSOLUTE MONOCYTE: 131.33 CELLS/uL
  ABSOLUTE SEGMENTED NEUTROPHIL: 1483.33 CELLS/uL
  BASOPHIL: 0%
  EOSINOPHIL: 0%
  ERYTHROCYTE COUNT: 5.37 x10E6/uL
  HEMATOCRIT: 34.23%
  HEMOGLOBIN: 13.53 G/DL
  LEUKOCYTE COUNT: 18.23 x10E3/uL
  LYMPHOCYTE: 91%
  MEAN CORPUSCULAR HEMOGLOBIN: 25.17 pg
  MEAN CORPUSCULAR HEMOGLOBIN CONCENTRATION: 39.53 G/DL
  MEAN CORPUSCULAR VOLUME: 63.67 fL
  MONOCYTE: 0.67%
  NEUTROPHIL: 8.33%
  NUCLEATED RED BLOOD CELLS: 0.33 /100WBC
  PLATELET COUNT: 1187.67 x10E3/uL
  ALANINE AMINOTRANSFERASE: 61.33 u/L
  ALBUMIN: 3.93 G/DL
  ALKALINE PHOSPHATASE: 368 u/L
  ASPARTATE AMINOTRANSFERASE: 88.33 u/L
  BLOOD UREA NITROGEN: 12 mg/dL
  CARBON DIOXIDE: 33 mmol/L
  CHLORIDE: 100.33 MEQ/L
  CHOLESTEROL: 70 mg/dL
  CREATINE PHOSPHOKINASE: 531.67 u/L
  CREATININE: 0.1 mg/dL
  GLUCOSE: 158.33 mg/dL
  LACTATE DEHYDROGENASE: 253.33 u/L
  LIPASE: 10.33 u/L
  PHOSPHORUS: 11.93 mg/dL
  POTASSIUM: 6.44 MEQ/L
  SODIUM: 140.57 MEQ/L
  TOTAL BILIRUBIN: 0.13 mg/dL
  TOTAL PROTEIN: 5.37 G/DL
  URIC ACID: 1.27 mg/dL
[2]
  ABSOLUTE BASOPHIL: 0 CELLS/uL
  ABSOLUTE EOSINOPHIL: 0 CELLS/uL
  ABSOLUTE LYMPHOCYTE: 12939.67 CELLS/uL
  ABSOLUTE MONOCYTE: 411.33 CELLS/uL
  ABSOLUTE SEGMENTED NEUTROPHIL: 1515.67 CELLS/uL
  BASOPHIL: 0%
  EOSINOPHIL: 0%
  ERYTHROCYTE COUNT: 5.44 x10E6/uL
  HEMATOCRIT: 33.73%
  HEMOGLOBIN: 13.47 G/DL
  LEUKOCYTE COUNT: 14.87 x10E3/uL
  LYMPHOCYTE: 86.67%
  MEAN CORPUSCULAR HEMOGLOBIN: 24.83 pg
  MEAN CORPUSCULAR HEMOGLOBIN CONCENTRATION: 39.93 G/DL
  MEAN CORPUSCULAR VOLUME: 62.2 fL
  MONOCYTE: 2.67%
  NEUTROPHIL: 10.67%
  NUCLEATED RED BLOOD CELLS: 0 /100WBC
  PLATELET COUNT: 1072.33 x10E3/uL
  ALANINE AMINOTRANSFERASE: 55.67 u/L
  ALBUMIN: 4.07 G/DL
  ALKALINE PHOSPHATASE: 363.67 u/L
  ASPARTATE AMINOTRANSFERASE: 79.33 u/L
  BLOOD UREA NITROGEN: 14 mg/dL
  CARBON DIOXIDE: 34.33 mmol/L
  CHLORIDE: 101.33 MEQ/L
  CHOLESTEROL: 72 mg/dL
  CREATINE PHOSPHOKINASE: 211.33 u/L
  CREATININE: 0.23 mg/dL
  GLUCOSE: 148.67 mg/dL
  LACTATE DEHYDROGENASE: 269 u/L
  LIPASE: 11 u/L
  PHOSPHORUS: 10.8 mg/dL
  POTASSIUM: 6.14 MEQ/L
  SODIUM: 143.2 MEQ/L
  TOTAL BILIRUBIN: 0.17 mg/dL
  TOTAL PROTEIN: 5.57 G/DL
  URIC ACID: 1.07 mg/dL
[3]
  ABSOLUTE BASOPHIL: 0 CELLS/uL
  ABSOLUTE EOSINOPHIL: 0 CELLS/uL
  ABSOLUTE LYMPHOCYTE: 12941.33 CELLS/uL
  ABSOLUTE MONOCYTE: 144.33 CELLS/uL
  ABSOLUTE SEGMENTED NEUTROPHIL: 2147.67 CELLS/uL
  BASOPHIL: 0%
  EOSINOPHIL: 0%
  ERYTHROCYTE COUNT: 5.65 x10E6/uL
  HEMATOCRIT: 35.8%
  HEMOGLOBIN: 14.6 G/DL
  LEUKOCYTE COUNT: 15.23 x10E3/uL
  LYMPHOCYTE: 85.33%
  MEAN CORPUSCULAR HEMOGLOBIN: 25.83 pg
  MEAN CORPUSCULAR HEMOGLOBIN CONCENTRATION: 40.8 G/DL
  MEAN CORPUSCULAR VOLUME: 63.37 fL
  MONOCYTE: 1%
  NEUTROPHIL: 13.67%
  NUCLEATED RED BLOOD CELLS: 0 /100WBC
  PLATELET COUNT: 1122.33 x10E3/uL
  ALANINE AMINOTRANSFERASE: 51.33 u/L
  ALBUMIN: 3.67 G/DL
  ALKALINE PHOSPHATASE: 417 u/L
  ASPARTATE AMINOTRANSFERASE: 96 u/L
  BLOOD UREA NITROGEN: 13 mg/dL
  CARBON DIOXIDE: 31.67 mmol/L
  CHLORIDE: 102.33 MEQ/L
  CHOLESTEROL: 68.67 mg/dL
  CREATINE PHOSPHOKINASE: 259.67 u/L
  CREATININE: 0.14 mg/dL
  GLUCOSE: 156.33 mg/dL
  LACTATE DEHYDROGENASE: 181 u/L
  LIPASE: 10 u/L
  PHOSPHORUS: 11.27 mg/dL
  POTASSIUM: 5.99 MEQ/L
  SODIUM: 144.97 MEQ/L
  TOTAL BILIRUBIN: 0.17 mg/dL
  TOTAL PROTEIN: 5.37 G/DL
  URIC ACID: 1.3 mg/dL
[4]
  ABSOLUTE BASOPHIL: 0 CELLS/uL
  ABSOLUTE EOSINOPHIL: 0 CELLS/uL
  ABSOLUTE LYMPHOCYTE: 16000.33 CELLS/uL
  ABSOLUTE MONOCYTE: 0 CELLS/uL
  ABSOLUTE SEGMENTED NEUTROPHIL: 833 CELLS/uL
  BASOPHIL: 0%
  EOSINOPHIL: 0%
  ERYTHROCYTE COUNT: 5.75 x10E6/uL
  HEMATOCRIT: 36.37%
  HEMOGLOBIN: 14.3 G/DL
  LEUKOCYTE COUNT: 16.83 x10E3/uL
  LYMPHOCYTE: 95%
  MEAN CORPUSCULAR HEMOGLOBIN: 24.9 pg
  MEAN CORPUSCULAR HEMOGLOBIN CONCENTRATION: 39.33 G/DL
  MEAN CORPUSCULAR VOLUME: 63.37 fL
  MONOCYTE: 0%
  NEUTROPHIL: 5%
  NUCLEATED RED BLOOD CELLS: 0 /100WBC
  PLATELET COUNT: 1265 x10E3/uL
  ALANINE AMINOTRANSFERASE: 57.33 u/L
  ALBUMIN: 4.07 G/DL
  ALKALINE PHOSPHATASE: 391.67 u/L
  ASPARTATE AMINOTRANSFERASE: 95.67 u/L
  BLOOD UREA NITROGEN: 14.67 mg/dL
  CARBON DIOXIDE: 30 mmol/L
  CHLORIDE: 102 MEQ/L
  CHOLESTEROL: 56 mg/dL
  CREATINE PHOSPHOKINASE: 585 u/L
  CREATININE: 0.11 mg/dL
  GLUCOSE: 164 mg/dL
  LACTATE DEHYDROGENASE: 175.33 u/L
  LIPASE: 9.67 u/L
  PHOSPHORUS: 12.43 mg/dL
  POTASSIUM: 6.27 MEQ/L
  SODIUM: 142.13 MEQ/L
  TOTAL BILIRUBIN: 0.1 mg/dL
  TOTAL PROTEIN: 5.6 G/DL
  URIC ACID: 1.73 mg/dL
